Data as given in ChEMBL document CHEMBL4342403, “New evolutions in the BACE1 inhibitor field from 2014 to 2018” (Bioorg Med Chem Lett, 2019).
Each block holds one compound with its values, some of them ahead of it.

Experiments:
Mus musculus = test: In vivo inhibition of BACE1 in C57B1/6J mouse assessed as reduction in amyloidbeta 40 level in brain at 30 mg/kg, po measured at 4 hrs post dose by ELISA relative to control; assay type: functional
Beta-secretase 1 [1] = target: T1, Beta-secretase 1 (Homo sapiens, UniProt P56817); test: Inhibition of BACE1 in HEK293 cells harboring APP assessed as reduction in amyloidbeta 40 level incubated for 18 to 20 hrs by AlphaLISA Assay; assay type: cell-based
Beta-secretase 1 [2] = target: T1, Beta-secretase 1; test: Inhibition of BACE1 in human SH-SY5Y cells expressing betaAPP assessed as reduction in amyloidbeta (1 to 40 residues) level incubated for 24 hrs by HTRF assay; assay type: cell-based
Beta-secretase 1 [3] = target: T1, Beta-secretase 1; test: Inhibition of BACE1 in human SK-N-BE(2) cells expressing human APP695 assessed as reduction in amyloidbeta (1 to 42 residues) level incubated for 18 hrs by sandwich ELISA; assay type: cell-based
Beta-secretase 2 [4] = target: T2, Beta-secretase 2 (Homo sapiens, UniProt Q9Y5Z0); test: Inhibition of BACE2 (unknown origin) incubated for 450 mins using APP swedish mutant as substrate by FRET assay
T2 sequence (Q9Y5Z0 whole entry): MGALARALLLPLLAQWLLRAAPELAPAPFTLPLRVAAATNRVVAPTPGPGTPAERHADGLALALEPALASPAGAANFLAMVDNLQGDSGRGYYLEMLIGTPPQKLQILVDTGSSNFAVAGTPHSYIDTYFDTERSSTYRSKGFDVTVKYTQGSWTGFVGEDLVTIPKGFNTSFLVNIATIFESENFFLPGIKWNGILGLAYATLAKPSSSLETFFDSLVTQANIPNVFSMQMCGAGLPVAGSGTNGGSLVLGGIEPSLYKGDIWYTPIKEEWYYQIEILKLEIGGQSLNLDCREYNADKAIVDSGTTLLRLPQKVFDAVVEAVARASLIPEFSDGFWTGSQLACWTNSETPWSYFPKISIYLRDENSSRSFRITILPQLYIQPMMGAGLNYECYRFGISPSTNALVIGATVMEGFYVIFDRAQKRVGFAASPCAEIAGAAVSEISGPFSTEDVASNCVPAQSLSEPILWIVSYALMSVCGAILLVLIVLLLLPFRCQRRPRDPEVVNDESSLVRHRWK

Beta-secretase 1 [5] = target: T1, Beta-secretase 1; test: Inhibition of BACE1 (unknown origin) incubated for 120 mins using APP swedish mutant as substrate by FRET assay
Beta-secretase 1 [6] = target: T1, Beta-secretase 1; test: Inhibition of BACE1 in human SK-N-BE(2) cells expressing human APP695 assessed as reduction in amyloidbeta level incubated for 18 hrs by sandwich ELISA; assay type: cell-based
Beta-secretase 1 [7] = target: T1, Beta-secretase 1; test: Inhibition of human BACE1 (1 to 460 residues) expressed in HEK293 cells after 16 to 24 hrs by FRET assay; assay type: cell-based
Beta-secretase 1 [8] = target: T1, Beta-secretase 1; test: Inhibition of BACE1 (unknown origin)
Beta-secretase 2 [9] = target: T2, Beta-secretase 2; test: Inhibition of BACE2 (unknown origin)
Beta-secretase 1 [10] = target: T1, Beta-secretase 1; test: Inhibition of BACE1 (unknown origin) by cell-based assay
Beta-secretase 1 [11] = target: T1, Beta-secretase 1; test: Inhibition of human BACE1 using Biotin-XSEVNLDAEFRHDSGC as substrate incubated for 2 hrs by fluorescence method
[12] = Dissociation constant, pKa of the compound; assay type: physicochemical
Beta-secretase 1 [13] = target: T1, Beta-secretase 1; test: Inhibition of human BACE1 expressed in Escherichia coli preincubated for 1 hr followed by Mca-Ser-Glu-Val-Asn-Leu-Asp-Ala-Glu-Phe-Lys(Dnp)-OH substrate addition by spectroflurimetric assay
Cathepsin D = Cathepsin D (Homo sapiens, UniProt P07339); test: Inhibition of recombinant Cathepsin D (unknown origin) expressed in CHO cells preincubated for 1 hr followed by substrate addition and measured after 1 hr by FRET assay; assay type: cell-based
Beta-secretase 1 [14] = target: T1, Beta-secretase 1; test: Inhibition of BACE1 (unknown origin) assessed as reduction in amyloidbeta 40 level after 24 hrs by cell-based sandwich ELISA
Beta-secretase 2 [15] = target: T2, Beta-secretase 2; test: Inhibition of human BACE2 preincubated for 30 mins followed by QSY7- EISEVNLDAEFC-Eu-amide substrate addition and measured after […] by HTRF assay
Beta-secretase 1 [16] = target: T1, Beta-secretase 1; test: Inhibition of human BACE1 catalytic domain preincubated for 30 mins followed by QSY7-EISEVNLDAEFC-Europium-amide substrate addition and measured after […] by HTRF assay
Beta-secretase 1 [17] = target: T1, Beta-secretase 1; test: Inhibition of human BACE1 using Biotin-XSEVNLDAEFRHDSGC as substrate incubated for […] by fluorescence method
Rattus norvegicus [18] = test: In vivo inhibition of BACE1 in Sprague Dawley rat assessed as reduction in amyloidbeta 40 level in brain at 30 mg/kg, po measured at 3 hrs post dose by ELISA relative to control; assay type: functional
Rattus norvegicus [19] = test: In vivo inhibition of BACE1 in Sprague Dawley rat assessed as reduction in amyloidbeta 40 level in brain at 10 mg/kg, po measured at 3 hrs post dose by ELISA relative to control; assay type: functional
Beta-secretase 1 [20] = target: T1, Beta-secretase 1; test: Inhibition of C-terminal His6-tagged human BACE1 expressed in mammalian expression system preincubated for 1 hr followed by substrate addition and measured after 1 hr by FRET assay
Beta-secretase 2 [21] = target: T2, Beta-secretase 2; test: Inhibition of C-terminal His6-tagged human BACE2 expressed in mammalian expression system preincubated for 1 hr followed by substrate addition and measured after 1 hr by FRET assay

T1 sequence (P56817 whole entry, the tested form may be a part): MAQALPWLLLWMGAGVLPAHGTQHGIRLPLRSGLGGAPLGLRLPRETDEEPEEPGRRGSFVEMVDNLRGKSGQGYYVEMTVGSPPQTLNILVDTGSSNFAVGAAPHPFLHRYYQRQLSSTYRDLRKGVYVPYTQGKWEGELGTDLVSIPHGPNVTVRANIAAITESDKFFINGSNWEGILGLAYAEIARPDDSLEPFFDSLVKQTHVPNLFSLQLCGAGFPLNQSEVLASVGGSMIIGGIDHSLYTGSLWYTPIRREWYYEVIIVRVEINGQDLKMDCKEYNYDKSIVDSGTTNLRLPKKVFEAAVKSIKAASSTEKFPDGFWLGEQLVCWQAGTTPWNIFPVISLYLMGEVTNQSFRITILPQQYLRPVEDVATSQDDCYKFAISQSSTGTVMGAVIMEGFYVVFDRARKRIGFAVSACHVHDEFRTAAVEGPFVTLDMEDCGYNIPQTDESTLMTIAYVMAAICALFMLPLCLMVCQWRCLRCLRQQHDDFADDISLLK
Chain of Cathepsin D (P07339 65-162 limits assumed): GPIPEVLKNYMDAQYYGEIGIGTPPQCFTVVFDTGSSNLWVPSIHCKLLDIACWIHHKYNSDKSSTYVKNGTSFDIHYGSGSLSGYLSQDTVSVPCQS
Chain of Cathepsin D (P07339 169-412 limits assumed): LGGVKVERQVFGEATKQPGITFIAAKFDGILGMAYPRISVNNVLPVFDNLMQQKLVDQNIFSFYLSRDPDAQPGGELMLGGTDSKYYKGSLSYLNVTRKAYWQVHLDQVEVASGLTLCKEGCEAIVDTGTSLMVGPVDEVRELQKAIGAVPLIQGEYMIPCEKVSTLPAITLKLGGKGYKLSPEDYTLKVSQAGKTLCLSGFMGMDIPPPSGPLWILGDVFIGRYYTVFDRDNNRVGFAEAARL

Structure (SMILES): Cc1cc(C#N)cnc1C(=O)Nc1ccc(F)c([C@]2(C)CS3(=O)=NCCCCC3(C)C(N)=N2)c1 (stereo partly drawn)
inhibition in vivo at 30 mg/kg (Mus musculus): 52% | IC50 (Beta-secretase 1 [1]): 0.2 nM

IC50 (Beta-secretase 1 [2]): 1 nM
Structure (SMILES): COC[C@H]1SC(N)=N[C@](C)(c2cc(NC(=O)c3ccc(C#N)cn3)ccc2F)[C@H]1F

IC50 (Beta-secretase 1 [3]): 6.9 nM | IC50 (Beta-secretase 2 [4]): 66 nM | IC50 (Beta-secretase 1 [5]): 9.8 nM
Structure (SMILES): COc1ccc(C(=O)Nc2ccc(F)c([C@]3(C)CC[C@@](C)(C#N)C(N)=N3)c2)nc1

IC50 (Beta-secretase 1 [6]): 0.76 nM
Structure (SMILES): COc1ncc(CC2CCOCC2)c2c1C[C@]1(c3ccc(F)cc3F)N=C(N)SC[C@@H]1C2

IC50 (Beta-secretase 1 [7]): 172 nM
Structure (SMILES): COc1nc(N2C[C@H]3CSC(N)=N[C@@]3(c3ccns3)C2)nc(C)c1F

IC50 (Beta-secretase 1 [8]): 3.5 nM | IC50 (Beta-secretase 2 [9]): 15.8 nM | IC50 (Beta-secretase 1 [10]): 0.95 nM
Structure (SMILES): C[C@@]1(c2cc(NC(=O)c3ccc(C#N)cc3)ccc2F)Cn2cnc(C(F)F)c2C(N)=N1

IC50 (Beta-secretase 1 [11]): 11.9 nM | IC50 (Beta-secretase 1 [2]): 5.4 nM
Structure (SMILES): C[C@H]1SC(N)=N[C@](C)(c2cc(NC(=O)c3cnc(F)cn3)ccc2F)C12CC(F)(F)C2

pKa [12]: 9 | IC50 (Beta-secretase 1 [13]): 182 nM
Structure (SMILES): C[C@]1(c2cc(NC(=O)c3ccc(C#N)cn3)ccc2F)N=C(N)C[C@H]1C(F)(F)F

IC50 (Beta-secretase 1 [1]): 30 nM
Structure (SMILES): C[C@@]1(c2cc(-c3cc(-c4cnc(C#N)cn4)no3)ccc2F)C[C@@H](C(F)(F)F)OC(N)=N1

IC50 (Cathepsin D): > 100000 nM | IC50 (Beta-secretase 1 [14]): 6 nM
Structure (SMILES): Cc1cc(Cl)cnc1C(=O)Nc1ccc2c(c1)[C@@]1(C)N=C(N)C(C)(C)S(=O)(=O)[C@@H]1CCO2

Ki (Beta-secretase 2 [15]): 14 nM | Ki (Beta-secretase 1 [16]): 1 nM
Structure (SMILES): CN1C(=N)N[C@]2(C)c3cc(NC(=O)c4ccc(C#N)cn4)ccc3OCC[C@H]2S1(=O)=O (relative stereo)

IC50 (Beta-secretase 1 [17]): 22.8 nM
Structure (SMILES): C#C[C@]1(c2cc(NC(=O)c3ccc(C#N)cn3)ccc2F)N=C(N)O[C@@H]2C[C@@H]21

Structure (SMILES): COc1ccc(C(=O)Nc2ccc(F)c([C@]34COC[C@@]3(F)C[C@](C)(F)C(N)=N4)c2)nc1
inhibition in vivo at 30 mg/kg (Rattus norvegicus [18]): 64% | inhibition in vivo at 10 mg/kg (Rattus norvegicus [19]): 48%

Structure (SMILES): Cc1cc(C#N)cnc1C(=O)Nc1ccc(F)c([C@@]2(C)N=C(N)C(C)(C)[S@@]3(=O)=NCC[C@@H]23)c1
inhibition in vivo at 30 mg/kg (Mus musculus): 86%

IC50 (Beta-secretase 1 [1]): 0.99 nM
Structure (SMILES): Cc1cc(C#N)cnc1C(=O)Nc1ccc(F)c([C@]2(C)CS(=O)(=NCC(F)(F)F)N(C)C(N)=N2)c1 (single isomer, unassigned)

Ki (Beta-secretase 2 [15]): 1.2 nM | Ki (Beta-secretase 1 [16]): 6.1 nM
Structure (SMILES): CN1CC2(C1)C(=N)N[C@](C)(c1cc(NC(=O)c3ccc(Cl)cn3)ccc1F)CS2(=O)=O

Ki (Beta-secretase 2 [15]): 1 nM | Ki (Beta-secretase 1 [16]): 5 nM
Structure (SMILES): CN=S1(=O)C[C@@](C)(c2cc(NC(=O)c3ccc(Cl)cn3)ccc2F)N=C(N)N1C (single isomer, unassigned)

IC50 (Beta-secretase 1 [1]): 3.4 nM
Structure (SMILES): C[C@@]1(c2nc(NC(=O)c3ccc(C#N)cn3)ccc2F)C[C@@H](C(F)(F)F)OC(N)=N1

IC50 (Beta-secretase 1 [20]): 15.2 nM | IC50 (Beta-secretase 2 [21]): 3.02 nM | IC50 (Beta-secretase 1 [14]): 11.2 nM
Structure (SMILES): NC1=N[C@](CF)(c2cc(NC(=O)c3cnc(Cl)cn3)cc(F)c2F)[C@H]2[C@@H](S1)C2(F)F

IC50 (Beta-secretase 1 [1]): 9 nM
Structure (SMILES): CC#CCOc1cnc(C2=Nc3cc([C@]4(C)C[C@@H](C(F)(F)F)OC(N)=N4)c(F)cc3CN2)cn1

IC50 (Beta-secretase 1 [2]): 0.391 nM
Structure (SMILES): C[C@]1(c2cc(NC(=O)c3ccc(C#N)cn3)ccc2F)N=C(N)O[C@H]2[C@@H]1OCC2(F)F

IC50 (Beta-secretase 1 [11]): 4.77 nM | IC50 (Beta-secretase 1 [2]): 1.2 nM
Structure (SMILES): C[C@H]1SC(N)=N[C@](C)(c2cc(NC(=O)c3ccc(OC(F)F)cn3)ccc2F)[C@H]1F

IC50 (Beta-secretase 1 [7]): 0.9 nM
Structure (SMILES): COc1cnc(C(=O)Nc2ccnc([C@]34CN(c5ncc(F)cn5)C[C@H]3CSC(N)=N4)c2)cn1
